Target: T1, KRasG12C (Homo sapiens, UniProt P01116, G12C)
T1 construct: biotin (biotinylated); made in house
Experiment: KRasG12C functional assay (HTRF/FRET nucleotide exchange and Raf RBD binding)
Format: biochemical
Settings: GDP loaded biotinylated KRasG12C, samples incubated for 4 hrs, FRET readout; single experiment or average of two or more; read-out: KRasG12C functional assay IC50
Procedure: All enzyme and substrate solutions were prepared in assay buffer containing 20 mM HEPES (pH 7.5), 5 mM MgCl2, 150 mM NaCl, and 0.01% Tween 20. […] In a separate mix 20 nM GST-Raf Ras binding domain (GST-Raf RBD, purified in house) and 4 μg/ml anti-GST XL665 antibody (Cisbio) was prepared in assay buffer containing 50 mM Potassium Fluoride and 0.05 mg/ml BSA and equilibrated for 4 hours before adding 0.6 μM Guanosine 5′-[γ-thio]triphosphate (GTPγS, Sigma) and 0.08 μM SOS (purified in house). 5 μl of the GST-RAF RBD mix was then dispensed into each well of the assay plate. […] This is detected simultaneously via the specific binding interaction between active GTPγS KRas^G12C with GST-Raf RBD which brings the europium and XL665 into close proximity enabling an increased FRET signal to be detected on a Pherastar (BMG) plate reader equipped with the HTRF filter module. […] IC50 values were calculated from normalised dose-response response FRET data curve fitted in Genedata screener (Basel, Switzerland).

T1 sequence (P01116 1-188 isoform P01116-2 G12C): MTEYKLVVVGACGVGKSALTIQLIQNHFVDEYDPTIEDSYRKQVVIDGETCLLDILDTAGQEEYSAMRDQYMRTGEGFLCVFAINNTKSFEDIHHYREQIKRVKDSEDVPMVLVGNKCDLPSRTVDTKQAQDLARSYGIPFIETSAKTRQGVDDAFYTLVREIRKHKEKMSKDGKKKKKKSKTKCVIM

SMILES | IC50 [µM]
C=CC(=O)N1CCN2C(=O)c3cc(F)c(-c4c(O)cccc4F)c(Cl)c3OC[C@H]2C1 (single isomer, unassigned) [Example 12] | 25.2
C=CC(=O)N1CCN2Cc3c(O)c(Cl)c(-c4c(O)cccc4F)c(Cl)c3OC[C@H]2C1 (single isomer, unassigned) [Example 13] | 0.066
C=CC(=O)N1CCN2Cc3c(O)c(Cl)c(-c4c(O)cccc4F)c(Cl)c3OC[C@H]2C1 (single isomer, unassigned) [Example 14] | 8.19
C=CC(=O)N1CCN2Cc3cc(F)c(-c4c(C)ccc5[nH]cnc45)c(Cl)c3OC[C@H]2C1 (single isomer, unassigned) [Example 18] | 28.7
C=CC(=O)N1CCN2Cc3cc(F)c(-c4c(C)ccc5[nH]cnc45)c(Cl)c3OC[C@H]2C1 (single isomer, unassigned) [Example 19] | 0.146
C=CC(=O)N1CCN2C(=O)c3cc(Cl)c(-c4c(O)cccc4F)c(Cl)c3OC[C@H]2C1 (single isomer, unassigned) [Example 20] | 0.043
C=CC(=O)N1CCN2C(=O)c3cc(Cl)c(-c4c(O)cccc4F)c(Cl)c3OC[C@H]2C1 (single isomer, unassigned) [Example 21] | 12.9
C=CC(=O)N1CCN2C(=O)c3cc(C)c(-c4c(O)cccc4F)c(Cl)c3OC[C@H]2C1 (single isomer, unassigned) [Example 24] | 43.8
C=CC(=O)N1CCN2C(=O)c3cc(C)c(-c4c(O)cccc4F)c(Cl)c3OC[C@H]2C1 (single isomer, unassigned) [Example 25] | 0.068
C=CC(=O)N1CCN2Cc3cc(F)c(-c4c(C)ccc5cc[nH]c(=O)c45)c(Cl)c3OC[C@H]2C1 (single isomer, unassigned) [Example 28] | 17
C=CC(=O)N1CCN2Cc3cc(F)c(-c4c(C)ccc5cc[nH]c(=O)c45)c(Cl)c3OC[C@H]2C1 (single isomer, unassigned) [Example 29] | 0.164
C=CC(=O)N1CCN2C(=O)c3ccc(-c4c(C)ccc5[nH]ncc45)c(Cl)c3NC[C@H]2C1 (single isomer, unassigned) [Example 32] | 64.8
C=CC(=O)N1CCN2C(=O)c3ccc(-c4c(C)ccc5[nH]ncc45)c(Cl)c3NC[C@H]2C1 (single isomer, unassigned) [Example 33] | 0.998
C=CC(=O)N1CCN2C(=O)c3ccc(-c4c(C)ccc5[nH]ncc45)c(Cl)c3N(C)C[C@H]2C1 (single isomer, unassigned) [Example 36] | 98.2
C=CC(=O)N1CCN2C(=O)c3ccc(-c4c(C)ccc5[nH]ncc45)c(Cl)c3N(C)C[C@H]2C1 (single isomer, unassigned) [Example 37] | 0.273
C=CC(=O)N1CCN2Cc3c(c(Cl)c(-c4c(O)cccc4F)n(C)c3=O)OC[C@H]2C1 (single isomer, unassigned) [Example 66] | 21
C=CC(=O)N1CCN2Cc3c(c(Cl)c(-c4c(O)cccc4F)n4cnnc34)OC[C@H]2C1 (single isomer, unassigned) [Example 70] | 19
C=CC(=O)N1CCN2Cc3c(c(Cl)c(-c4c(O)cccc4F)n4cnnc34)OC[C@H]2C1 (single isomer, unassigned) [Example 71] | 0.539
C=CC(=O)N1CCN2Cc3c(c(Cl)c(-c4c(O)cccc4F)c4cnn(C)c34)OC[C@H]2C1 (single isomer, unassigned) [Example 72] | 0.133
C=CC(=O)N1CCN2Cc3c(c(Cl)c(-c4c(O)cccc4F)c4cnn(C)c34)OC[C@H]2C1 (single isomer, unassigned) [Example 73] | 23

Other lines, results leading:

IC50 [µM] | SMILES
2.58 | C=CC(=O)N1CCN2Cc3cc(C#N)c(-c4c(O)cccc4F)c(Cl)c3OC[C@H]2C1 (single isomer, unassigned) [Example 22]
0.105 | C=CC(=O)N1CCN2Cc3cc(C#N)c(-c4c(O)cccc4F)c(Cl)c3OC[C@H]2C1 (single isomer, unassigned) [Example 23]
1 | C=CC(=O)N1CCN2Cc3cc(Cl)c(-c4c(O)cccc4F)c(Cl)c3OC[C@H]2C1 (single isomer, unassigned) [Example 26]
90.5 | C=CC(=O)N1CCN2Cc3cc(OC)c(-c4c(O)cccc4F)c(Cl)c3OC[C@H]2C1 (single isomer, unassigned) [Example 30]
0.279 | C=CC(=O)N1CCN2Cc3cc(OC)c(-c4c(O)cccc4F)c(Cl)c3OC[C@H]2C1 (single isomer, unassigned) [Example 31]
64.9 | C=CC(=O)N1CCN2Cc3cc(F)c(-c4c(O)cccc4Cl)c(Cl)c3OC[C@H]2C1 (single isomer, unassigned) [Example 34]
40.1 | C=CC(=O)N1CCN2Cc3cc(F)c(-c4c(O)ccc(F)c4F)c(Cl)c3OC[C@H]2C1 (single isomer, unassigned) [Example 38]
0.123 | C=CC(=O)N1CCN2Cc3cc(F)c(-c4c(O)ccc(F)c4F)c(Cl)c3OC[C@H]2C1 (single isomer, unassigned) [Example 39]
4.62 | C=CC(=O)N1CCN2Cc3cc(C#N)c(-c4c(C)cccc4O)c(Cl)c3OC[C@H]2C1 (single isomer, unassigned) [Example 40]
0.18 | C=CC(=O)N1CCN2Cc3cc(C#N)c(-c4c(C)cccc4O)c(Cl)c3OC[C@H]2C1 (single isomer, unassigned) [Example 41]
99.5 | C=CC(=O)N1CCN2Cc3cc(F)c(-c4c(F)cccc4CO)c(F)c3OC[C@H]2C1 (single isomer, unassigned) [Example 46]
1.72 | C=CC(=O)N1CCN2Cc3cc(F)c(-c4c(F)cccc4CO)c(F)c3OC[C@H]2C1 (single isomer, unassigned) [Example 47]
42.7 | C=CC(=O)N1CCN2Cc3cc(F)c(-c4c(O)cccc4C(F)(F)F)c(F)c3OC[C@H]2C1 (single isomer, unassigned) [Example 48]
99.3 | C=CC(=O)N1CCN2Cc3cc(F)c(-c4c(O)cccc4CC)c(F)c3OC[C@H]2C1 (single isomer, unassigned) [Example 50]
0.542 | C=CC(=O)N1CCN2Cc3cc(F)c(-c4c(O)cccc4CC)c(F)c3OC[C@H]2C1 (single isomer, unassigned) [Example 51]
> 100 | C=CC(=O)N1CCN2Cc3cc(F)c(-c4c(O)cccc4C(F)F)c(F)c3OC[C@H]2C1 (single isomer, unassigned) [Example 52]
1.7 | C=CC(=O)N1CCN2Cc3cc(C#N)c(-c4c(O)cccc4Cl)c(Cl)c3OC[C@H]2C1 (single isomer, unassigned) [Example 56]
0.031 | C=CC(=O)N1CCN2Cc3cc(C#N)c(-c4c(O)cccc4Cl)c(Cl)c3OC[C@H]2C1 (single isomer, unassigned) [Example 57]
11.8 | C=CC(=O)N1CCN2Cc3cc(F)c(-c4c(O)cccc4Br)c(F)c3OC[C@H]2C1 (single isomer, unassigned) [Example 58]
15.9 | C=CC(=O)N1CCN2Cc3cc(Cl)c(-c4c(C)cccc4O)c(F)c3OC[C@H]2C1 (single isomer, unassigned) [Example 60]
15.7 | C#Cc1c2c(cc(Cl)c1-c1c(C)cccc1O)CN1CCN(C(=O)C=C)C[C@@H]1CO2 (single isomer, unassigned) [Example 62]
0.12 | C#Cc1c2c(cc(Cl)c1-c1c(C)cccc1O)CN1CCN(C(=O)C=C)C[C@@H]1CO2 (single isomer, unassigned) [Example 63]
37.1 | C#Cc1c2c(cc(F)c1-c1c(C)cccc1O)CN1CCN(C(=O)C=C)C[C@@H]1CO2 (single isomer, unassigned) [Example 64]
0.81 | C=CC(=O)N1CCN2Cc3c(c(Cl)c(-c4c(O)cccc4F)n(C)c3=O)OC[C@H]2C1 (single isomer, unassigned) [Example 67]
0.135 | C=CC(=O)N1CCN2Cc3c(c(Cl)c(-c4c(O)cccc4F)c4cn(C)nc34)OC[C@H]2C1 (single isomer, unassigned) [Example 74]
50.8 | C=CC(=O)N1CCN2Cc3c(c(Cl)c(-c4c(O)cccc4F)c4cn(C)nc34)OC[C@H]2C1 (single isomer, unassigned) [Example 75]

Same assay, conditions: KRasG12C functional assay IC50, GDP loaded biotinylated KRasG12C, samples incubated for 4 hrs, FRET readout; single experiment or average of two or more

SMILES | IC50 [µM]
C=CC(=O)N1CCN2C(=O)c3ccc(-c4c(C)ccc5[nH]ncc45)c(Cl)c3OC[C@@H]2C1 (single isomer, unassigned) [Example 1] | 73
C=CC(=O)N1CCN2C(=O)c3ccc(-c4c(C)ccc5[nH]ncc45)c(Cl)c3OC[C@@H]2C1 (single isomer, unassigned) [Example 2] | 4.5
C=CC(=O)N1CCN2C(=O)c3ccc(-c4c(C)ccc5[nH]ncc45)c(Cl)c3OC[C@H]2C1 (single isomer, unassigned) [Example 7] | 82
C=CC(=O)N1CCN2Cc3ccc(-c4c(C)ccc5[nH]ncc45)c(Cl)c3OC[C@H]2C1 (single isomer, unassigned) [Example 9] | 26

The remaining lines, values ahead:

IC50 [µM] | SMILES
> 100 | C=CC(=O)N1CCN2Cc3cc(F)c(-c4c(C)cccc4O)c(F)c3OC[C@H]2C1 (single isomer, unassigned) [Example 44]
0.339 | C=CC(=O)N1CCN2Cc3cc(C#N)c(-c4c(O)cccc4Cl)c(F)c3OC[C@H]2C1 (single isomer, unassigned) [Example 54]
0.016 | C=CC(=O)N1CCN2Cc3cc(C#N)c(-c4c(O)cccc4Cl)c(F)c3OC[C@H]2C1 (single isomer, unassigned) [Example 55]

From US12410187B2, “Fused tricyclic compounds useful as anticancer agents” (ASTRAZENECA AB, priority 2019, dated 2025)
